Patent publication US8513238B2 (Hoffmann-La Roche Inc., priority 2010, dated 2013)
Counter-ions that a name gives are not always drawn.

Biological target: T1, human V1a receptor (Homo sapiens, UniProt P37288)
T1 construct: expressed in transfected cells; host or cells: HEK293 cells, transiently transfected; membranes prepared
Experiment: human V1a receptor binding (3H-Vasopressin SPA, HEK293 membranes)
Conditions: membranes of HEK293 cells transiently transfected with human V1a receptor, Ki by Cheng-Prussoff, read-out: pKi (hV1a) (converted)
Procedure, shortened: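 HEK293 membranes transiently expressing cloned human V1a receptor, bound to yttrium silicate SPA beads in Tris/NaCl/KCl/CaCl2/MgCl2 buffer. Test compounds in 2% DMSO competed with 3H-vasopressin (4 nM solution added) for 1 h at room temperature; non-specific binding defined with cold vasopressin. IC50 from non-linear fit, Ki via Cheng-Prusoff.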

T1 sequence (P37288 whole entry): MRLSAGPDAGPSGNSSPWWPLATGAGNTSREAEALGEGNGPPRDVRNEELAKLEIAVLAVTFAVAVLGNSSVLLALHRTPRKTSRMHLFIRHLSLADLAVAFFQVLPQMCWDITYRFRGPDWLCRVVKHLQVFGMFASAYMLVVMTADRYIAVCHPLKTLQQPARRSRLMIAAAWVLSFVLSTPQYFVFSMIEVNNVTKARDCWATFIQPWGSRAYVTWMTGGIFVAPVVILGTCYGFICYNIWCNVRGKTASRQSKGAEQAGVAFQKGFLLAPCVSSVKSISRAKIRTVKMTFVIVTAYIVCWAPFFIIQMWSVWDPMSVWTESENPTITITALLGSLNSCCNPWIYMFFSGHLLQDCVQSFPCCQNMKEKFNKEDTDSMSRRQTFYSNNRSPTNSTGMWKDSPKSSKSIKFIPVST

SMILES | Ki
Cc1nc([C@H]2CC[C@H](c3nnc4n3-c3ccc(Cl)cc3CN(C3CCC3)C4)CC2)no1 [Example 77, trans-8-Chloro-5-cyclobutyl-1-[4-(5-methyl-[1,2,4]oxadiazol-3-yl)-cyclohexyl]-5,6-dihydro-4H-2,3,5,10b-tetraaza-benzo[e]azulene] | 0.00151 µM
Cc1nc([C@H]2CC[C@H](c3nnc4n3-c3ccc(Cl)cc3CN(C3CCCC3)C4)CC2)no1 [Example 78, trans-8-Chloro-5-cyclopentyl-1-[4-(5-methyl-[1,2,4]oxadiazol-3-yl)-cyclohexyl]-5,6-dihydro-4H-2,3,5,10b-tetraaza-benzo[e]azulene] | 0.00589 µM
Cc1nc([C@H]2CC[C@H](c3nnc4n3-c3ccc(Cl)cc3CN(CC(F)F)C4)CC2)no1 [Example 79, trans-8-Chloro-5-(2,2-difluoro-ethyl)-1-[4-(5-methyl-[1,2,4]oxadiazol-3-yl)-cyclohexyl]-5,6-dihydro-4H-2,3,5,10b-tetraaza-benzo[e]azulene] | 0.00339 µM
CC(=O)N1Cc2cc(Cl)ccc2-n2c(nnc2[C@H]2CC[C@H](c3noc(C)n3)CC2)C1 [Example 80, trans-1-{8-Chloro-1-[4-(5-methyl-[1,2,4]oxadiazol-3-yl)-cyclohexyl]-4H,6H-2,3,5,10b-tetraaza-benzo[e]azulen-5-yl}-ethanone] | 0.0229 µM
Cc1nc([C@H]2CC[C@H](c3nnc4n3-c3ccc(Cl)cc3CN(S(C)(=O)=O)C4)CC2)no1 [Example 81, trans-8-Chloro-5-methanesulfonyl-1-[4-(5-methyl-[1,2,4]oxadiazol-3-yl)-cyclohexyl]-5,6-dihydro-4H-2,3,5,10b-tetraaza-benzo[e]azulene] | 0.00427 µM
Cc1nc([C@H]2CC[C@@H](c3nnc4n3-c3ccc(Cl)cc3CN(C(=O)OC(C)(C)C)C4)CC2)no1 [Example 82, cis-8-Chloro-1-[4-(5-methyl-[1,2,4]oxadiazol-3-yl)-cyclohexyl]-4H,6H-2,3,5,10b-tetraaza-benzo[e]azulene-5-carboxylic acid tert-butyl ester] | 0.0148 µM
Cc1nc([C@H]2CC[C@@H](c3nnc4n3-c3ccc(Cl)cc3CNC4)CC2)no1 [Example 83, cis-8-Chloro-1-[4-(5-methyl-[1,2,4]oxadiazol-3-yl)-cyclohexyl]-5,6-dihydro-4H-2,3,5,10b-tetraaza-benzo[e]azulene hydrochloride] | 0.617 µM
Cc1nc([C@H]2CC[C@@H](c3nnc4n3-c3ccc(Cl)cc3CN(C)C4)CC2)no1 [Example 84, cis-8-Chloro-5-methyl-1-[4-(5-methyl-[1,2,4]oxadiazol-3-yl)-cyclohexyl]-5,6-dihydro-4H-2,3,5,10b-tetraaza-benzo[e]azulene] | 0.135 µM
CCc1nc([C@H]2CC[C@@H](c3nnc4n3-c3ccc(Cl)cc3CN(C(=O)OC(C)(C)C)C4)CC2)no1 [Example 85, cis-8-Chloro-1-[4-(5-ethyl-[1,2,4]oxadiazol-3-yl)-cyclohexyl]-4H,6H-2,3,5,10b-tetraaza-benzo[e]azulene-5-carboxylic acid tert-butyl ester] | 0.0407 µM
CCc1nc([C@H]2CC[C@H](c3nnc4n3-c3ccc(Cl)cc3CN(C(=O)OC(C)(C)C)C4)CC2)no1 [Example 86, trans-8-Chloro-1-[4-(5-ethyl-[1,2,4]oxadiazol-3-yl)-cyclohexyl]-4H,6H-2,3,5,10b-tetraaza-benzo[e]azulene-5-carboxylic acid tert-butyl ester] | 0.00309 µM
CCc1nc([C@H]2CC[C@H](c3nnc4n3-c3ccc(Cl)cc3CNC4)CC2)no1 [Example 87, trans-8-Chloro-1-[4-(5-ethyl-[1,2,4]oxadiazol-3-yl)-cyclohexyl]-5,6-dihydro-4H-2,3,5,10b-tetraaza-benzo[e]azulene hydrochloride] | 0.145 µM
CCc1nc([C@H]2CC[C@H](c3nnc4n3-c3ccc(Cl)cc3CN(C)C4)CC2)no1 [Example 88] | 0.0145 µM
CCc1nc([C@H]2CC[C@@H](c3nnc4n3-c3ccc(Cl)cc3CNC4)CC2)no1 [Example 89, cis-8-Chloro-1-[4-(5-ethyl-[1,2,4]oxadiazol-3-yl)-cyclohexyl]-5,6-dihydro-4H-2,3,5,10b-tetraaza-benzo[e]azulene hydrochloride] | 2.75 µM
CCc1nc([C@H]2CC[C@@H](c3nnc4n3-c3ccc(Cl)cc3CN(C)C4)CC2)no1 [Example 90] | 0.295 µM
CC(C)c1nc([C@H]2CC[C@@H](c3nnc4n3-c3ccc(Cl)cc3CN(C(=O)OC(C)(C)C)C4)CC2)no1 [Example 91, cis-8-Chloro-1-[4-(5-isopropyl-[1,2,4]oxadiazol-3-yl)-cyclohexyl]-4H,6H-2,3,5,10b-tetraaza-benzo[e]azulene-5-carboxylic acid tert-butyl ester] | 0.0347 µM
CC(C)c1nc([C@H]2CC[C@H](c3nnc4n3-c3ccc(Cl)cc3CN(C(=O)OC(C)(C)C)C4)CC2)no1 [Example 92, trans-8-Chloro-1-[4-(5-isopropyl-[1,2,4]oxadiazol-3-yl)-cyclohexyl]-4H,6H-2,3,5,10b-tetraaza-benzo[e]azulene-5-carboxylic acid tert-butyl ester] | 0.00309 µM
CC(C)c1nc([C@H]2CC[C@H](c3nnc4n3-c3ccc(Cl)cc3CNC4)CC2)no1 [Example 93, trans-8-Chloro-1-[4-(5-isopropyl-[1,2,4]oxadiazol-3-yl)-cyclohexyl]-5,6-dihydro-4H-2,3,5,10b-tetraaza-benzo[e]azulene hydrochloride] | 0.263 µM
CC(C)c1nc([C@H]2CC[C@H](c3nnc4n3-c3ccc(Cl)cc3CN(C)C4)CC2)no1 [Example 94] | 0.0195 µM
CC(C)c1nc([C@H]2CC[C@@H](c3nnc4n3-c3ccc(Cl)cc3CNC4)CC2)no1 [Example 95, cis-8-Chloro-1-[4-(5-isopropyl-[1,2,4]oxadiazol-3-yl)-cyclohexyl]-5,6-dihydro-4H-2,3,5,10b-tetraaza-benzo[e]azulene hydrochloride] | 2.95 µM
CC(C)c1nc([C@H]2CC[C@@H](c3nnc4n3-c3ccc(Cl)cc3CN(C)C4)CC2)no1 [Example 96] | 0.204 µM
Cc1nc([C@H]2CC[C@H](c3nnc4n3-c3ccc(Cl)cc3CN(C(=O)OC(C)(C)C)C4)CC2)oc1Cl [Example 98, trans-8-Chloro-1-[4-(5-chloro-4-methyl-oxazol-2-yl)-cyclohexyl]-4H,6H-2,3,5,10b-tetraaza-benzo[e]azulene-5-carboxylic acid tert-butyl ester] | 0.0011 µM
Cc1nc([C@H]2CC[C@H](c3nnc4n3-c3ccc(Cl)cc3CNC4)CC2)oc1Cl [Example 99, trans-8-Chloro-1-[4-(5-chloro-4-methyl-oxazol-2-yl)-cyclohexyl]-5,6-dihydro-4H-2,3,5,10b-tetraaza-benzo[e]azulene] | 0.00537 µM
Cc1nc([C@H]2CC[C@H](c3nnc4n3-c3ccc(Cl)cc3CN(C)C4)CC2)oc1Cl [Example 100, trans-8-Chloro-1-[4-(5-chloro-4-methyl-oxazol-2-yl)-cyclohexyl]-5-methyl-5,6-dihydro-4H-2,3,5,10b-tetraaza-benzo[e]azulene] | 0.0011 µM
Cc1nc([C@H]2CC[C@H](c3nnc4n3-c3ccc(Cl)cc3CN(C(=O)OC(C)(C)C)C4)CC2)sc1Cl [Example 101, trans-8-Chloro-1-[4-(5-chloro-4-methyl-thiazol-2-yl)-cyclohexyl]-4H,6H-2,3,5,10b-tetraaza-benzo[e]azulene-5-carboxylic acid tert-butyl ester] | 0.00129 µM
